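Results reflect a 48-hour exposure of cells in 96-well plates to compound at five concentrations. GI50 marks 50% less growth. At the TGI there is no net growth.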
Tests used:
Assay in all cases: inhibition of tumour cell growth, NCI panel, 48 h
786-0 renal = system: 786-0 renal
A498 renal = system: A498 renal
A549 NSCLC = system: A549 NSCLC
ACHN renal = system: ACHN renal
BT-549 breast = system: BT-549 breast
CCRF-CEM leukemia = system: CCRF-CEM leukemia
COLO 205 colon = system: COLO 205 colon
DU-145 prostate = system: DU-145 prostate
EKVX NSCLC = system: EKVX NSCLC
HCC-2998 colon = system: HCC-2998 colon
HCT-116 colon = system: HCT-116 colon
HCT-15 colon = system: HCT-15 colon
HL-60(TB) leukemia = system: HL-60(TB) leukemia
HOP-62 NSCLC = system: HOP-62 NSCLC
HOP-92 NSCLC = system: HOP-92 NSCLC
HS 578T breast = system: HS 578T breast
HT29 colon = system: HT29 colon
IGROV1 ovarian = system: IGROV1 ovarian
K-562 leukemia = system: K-562 leukemia
KM12 colon = system: KM12 colon
M14 melanoma = system: M14 melanoma
MALME-3M melanoma = system: MALME-3M melanoma
MCF7 breast = system: MCF7 breast
MDA-MB-435 = system: MDA-MB-435
MOLT-4 leukemia = system: MOLT-4 leukemia
NCI-H226 lung = system: NCI-H226 lung
NCI-H23 lung = system: NCI-H23 lung
NCI-H460 lung = system: NCI-H460 lung
NCI-H522 lung = system: NCI-H522 lung
NCI/ADR-RES ovarian = system: NCI/ADR-RES ovarian
OVCAR-4 ovarian = system: OVCAR-4 ovarian
OVCAR-5 ovarian = system: OVCAR-5 ovarian
OVCAR-8 ovarian = system: OVCAR-8 ovarian
PC-3 prostate = system: PC-3 prostate
RPMI-8226 leukemia = system: RPMI-8226 leukemia
RXF 393 renal = system: RXF 393 renal
SF-268 CNS = system: SF-268 CNS
SF-295 CNS = system: SF-295 CNS
SF-539 CNS = system: SF-539 CNS
SK-MEL-2 melanoma = system: SK-MEL-2 melanoma
SK-MEL-28 melanoma = system: SK-MEL-28 melanoma
SK-MEL-5 melanoma = system: SK-MEL-5 melanoma
SK-OV-3 ovarian = system: SK-OV-3 ovarian
SN12C renal = system: SN12C renal
SNB-19 CNS = system: SNB-19 CNS
SNB-75 CNS = system: SNB-75 CNS
SR leukemia = system: SR leukemia
SW-620 colon = system: SW-620 colon
T-47D breast = system: T-47D breast
TK-10 renal = system: TK-10 renal
U251 CNS = system: U251 CNS
UACC-257 melanoma = system: UACC-257 melanoma
UACC-62 melanoma = system: UACC-62 melanoma
UO-31 renal = system: UO-31 renal

CCOC(=O)c1c(NC(=O)c2ccccc2C(F)(F)F)sc2c1CCC(=O)C2
GI50 (786-0 renal): 4.63 µM
TGI (786-0 renal): > 100 µM
GI50 (A498 renal): 11.5 µM
TGI (A498 renal): 49.2 µM
GI50 (A549 NSCLC): 3.51 µM
TGI (A549 NSCLC): > 100 µM
GI50 (ACHN renal): 3.33 µM
TGI (ACHN renal): 10.4 µM
GI50 (BT-549 breast): 3.35 µM
TGI (BT-549 breast): > 100 µM
GI50 (CCRF-CEM leukemia): 3.24 µM
TGI (CCRF-CEM leukemia): > 100 µM
GI50 (COLO 205 colon): 2.12 µM
TGI (COLO 205 colon): 4.12 µM
GI50 (DU-145 prostate): 4.44 µM
TGI (DU-145 prostate): > 100 µM
GI50 (EKVX NSCLC): 3.41 µM
TGI (EKVX NSCLC): 23.6 µM
GI50 (HCC-2998 colon): 3.16 µM
TGI (HCC-2998 colon): 10.5 µM
GI50 (HCT-116 colon): 3.29 µM
TGI (HCT-116 colon): 12.6 µM
GI50 (HCT-15 colon): 2.72 µM
TGI (HCT-15 colon): 10.3 µM
GI50 (HL-60(TB) leukemia): 2.4 µM
TGI (HL-60(TB) leukemia): 6.48 µM
GI50 (HOP-62 NSCLC): 3.71 µM
TGI (HOP-62 NSCLC): > 100 µM
GI50 (HOP-92 NSCLC): 1.82 µM
TGI (HOP-92 NSCLC): 5.52 µM
GI50 (HS 578T breast): 4.66 µM
TGI (HS 578T breast): > 100 µM
GI50 (HT29 colon): 3.1 µM
TGI (HT29 colon): 8.75 µM
GI50 (IGROV1 ovarian): 3.09 µM
TGI (IGROV1 ovarian): 10.3 µM
GI50 (K-562 leukemia): 1.98 µM
TGI (K-562 leukemia): > 100 µM
GI50 (KM12 colon): 2.69 µM
TGI (KM12 colon): 7.21 µM
GI50 (M14 melanoma): 3.94 µM
TGI (M14 melanoma): > 100 µM
GI50 (MALME-3M melanoma): 2.78 µM
TGI (MALME-3M melanoma): 8 µM
GI50 (MCF7 breast): 2.79 µM
TGI (MCF7 breast): 30.2 µM
GI50 (MDA-MB-435): 3.18 µM
TGI (MDA-MB-435): 11.6 µM
GI50 (MOLT-4 leukemia): 3.54 µM
TGI (MOLT-4 leukemia): > 100 µM
GI50 (NCI-H226 lung): 2.94 µM
TGI (NCI-H226 lung): 9.47 µM
GI50 (NCI-H23 lung): 2.93 µM
TGI (NCI-H23 lung): 9.25 µM
GI50 (NCI-H460 lung): 3.48 µM
TGI (NCI-H460 lung): 12.1 µM
GI50 (NCI-H522 lung): 1.92 µM
TGI (NCI-H522 lung): 4.82 µM
GI50 (NCI/ADR-RES ovarian): 3.09 µM
TGI (NCI/ADR-RES ovarian): 11.2 µM
GI50 (OVCAR-4 ovarian): 3.79 µM
TGI (OVCAR-4 ovarian): > 100 µM
GI50 (OVCAR-5 ovarian): 2.52 µM
TGI (OVCAR-5 ovarian): 7.1 µM
GI50 (OVCAR-8 ovarian): 3.4 µM
TGI (OVCAR-8 ovarian): > 100 µM
GI50 (PC-3 prostate): 2.45 µM
TGI (PC-3 prostate): 7.68 µM
GI50 (RPMI-8226 leukemia): 1.95 µM
TGI (RPMI-8226 leukemia): 5.46 µM
GI50 (RXF 393 renal): 2.39 µM
TGI (RXF 393 renal): 8.09 µM
GI50 (SF-268 CNS): 3.96 µM
TGI (SF-268 CNS): > 100 µM
GI50 (SF-295 CNS): 2.58 µM
TGI (SF-295 CNS): 7.64 µM
GI50 (SF-539 CNS): 1.87 µM
TGI (SF-539 CNS): 3.72 µM
GI50 (SK-MEL-2 melanoma): 2.75 µM
TGI (SK-MEL-2 melanoma): 8.82 µM
GI50 (SK-MEL-28 melanoma): 4.51 µM
TGI (SK-MEL-28 melanoma): 65 µM
GI50 (SK-MEL-5 melanoma): 1.88 µM
TGI (SK-MEL-5 melanoma): 3.64 µM
GI50 (SK-OV-3 ovarian): 3.18 µM
TGI (SK-OV-3 ovarian): > 100 µM
GI50 (SN12C renal): 3.06 µM
TGI (SN12C renal): > 100 µM
GI50 (SNB-19 CNS): 3.85 µM
TGI (SNB-19 CNS): 41.2 µM
GI50 (SNB-75 CNS): 1.39 µM
TGI (SNB-75 CNS): 7.14 µM
GI50 (SR leukemia): 2.33 µM
TGI (SR leukemia): > 100 µM
GI50 (SW-620 colon): 2.64 µM
TGI (SW-620 colon): 10 µM
GI50 (T-47D breast): 3.12 µM
TGI (T-47D breast): > 100 µM
GI50 (TK-10 renal): 5.36 µM
TGI (TK-10 renal): > 100 µM
GI50 (U251 CNS): 0.792 µM
TGI (U251 CNS): 12 µM
GI50 (UACC-257 melanoma): 3.49 µM
TGI (UACC-257 melanoma): 37.8 µM
GI50 (UACC-62 melanoma): 2.83 µM
TGI (UACC-62 melanoma): 11.5 µM
GI50 (UO-31 renal): 2.3 µM
TGI (UO-31 renal): 7.57 µM

Reference: PubChem BioAssay (NCI)
